# PubChem BioAssay AID2060899 (Molecular Pharmacology Branch, DTP, NCI, 2025)
# Test system: 565726-208-R1-J5-PDC complex spheroids, growth inhibition
# Test: Anticancer human tumor 565726-208-R1-J5-PDC patient-derived pancreatic adenocarcinoma cell line growth inhibition [RAS]
# Conditions: for viability, T/C: stronger effect = lower value
# Procedure, shortened: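 Agents were tested in combination matrices in half-log decrements from a top concentration at or near clinical Cmax (10 microM if undetermined). Targets were multi-cell spheroids of tumour lines plus HUVEC and MSC stromal cells.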
# [1] = curve of first compound, second compound 0.00316 µM
# [2] = curve of first compound, second compound 0.01 µM
# [3] = curve of first compound, second compound 0.0316 µM
# [4] = curve of first compound, second compound 0.1 µM
# [5] = curve of first compound, second compound 0.316 µM
# [6] = curve of first compound, second compound 1 µM
# [7] = second compound 0.00316 µM, first compound 0.0316 µM
# [8] = second compound 0.00316 µM, first compound 0.1 µM
# [9] = second compound 0.01 µM, first compound 0.0316 µM
# [10] = second compound 0.01 µM, first compound 0.1 µM
# [11] = second compound 0.0316 µM, first compound 0.000316 µM
# [12] = second compound 0.0316 µM, first compound 0.001 µM
# [13] = second compound 0.0316 µM, first compound 0.00316 µM
# [14] = second compound 0.0316 µM, first compound 0.01 µM
# [15] = second compound 0.0316 µM, first compound 0.0316 µM
# [16] = second compound 0.0316 µM, first compound 0.1 µM
# [17] = second compound 0.1 µM, first compound 0.000316 µM
# [18] = second compound 0.1 µM, first compound 0.001 µM
# [19] = second compound 0.1 µM, first compound 0.00316 µM
# [20] = second compound 0.1 µM, first compound 0.01 µM
# [21] = second compound 0.1 µM, first compound 0.0316 µM
# [22] = second compound 0.1 µM, first compound 0.1 µM
# [23] = second compound 0.316 µM, first compound 0.000316 µM
# [24] = second compound 0.316 µM, first compound 0.001 µM
# [25] = second compound 0.316 µM, first compound 0.00316 µM
# [26] = second compound 0.316 µM, first compound 0.01 µM
# [27] = second compound 0.316 µM, first compound 0.0316 µM
# [28] = second compound 0.316 µM, first compound 0.1 µM
# [29] = second compound 1 µM, first compound 0.000316 µM
# [30] = second compound 1 µM, first compound 0.001 µM
# [31] = second compound 1 µM, first compound 0.00316 µM
# [32] = second compound 1 µM, first compound 0.01 µM
# [33] = second compound 1 µM, first compound 0.0316 µM
# [34] = second compound 1 µM, first compound 0.1 µM
# 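Also: spheroids exposed to compounds for seven days before readout.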
# 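For viability, T/C in this document: 100% = DMSO vehicle control viability.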
smiles,measurement,setting,value
CC(C)n1nc(-c2ccc3oc(N)nc3c2)c2c(N)ncnc21 + C=CC(=O)N1CCN(c2nc(OCC3CCCN3C)nc3c(F)c(-c4nc(N)cc(C)c4C(F)(F)F)c(Cl)cc23)C(C)C1,IC50,[1],100 nM
same,IC50,[2],25.2 nM
same,IC50,[3],44.9 nM
same,IC50,[4],59.1 nM
same,IC50,[5],100 nM
same,IC50,[6],80.9 nM
same,"viability, T/C","second compound 0.00316 µM, first compound 0.000316 µM",93%
same,"viability, T/C","second compound 0.00316 µM, first compound 0.001 µM",138%
same,"viability, T/C","second compound 0.00316 µM, first compound 0.00316 µM",70.2%
same,"viability, T/C","second compound 0.00316 µM, first compound 0.01 µM",62.3%
same,"viability, T/C",[7],57.1%
same,"viability, T/C",[8],42%
same,"viability, T/C","second compound 0.01 µM, first compound 0.000316 µM",93.5%
same,"viability, T/C","second compound 0.01 µM, first compound 0.001 µM",132%
same,"viability, T/C","second compound 0.01 µM, first compound 0.00316 µM",96.7%
same,"viability, T/C","second compound 0.01 µM, first compound 0.01 µM",68.2%
same,"viability, T/C",[9],48.2%
same,"viability, T/C",[10],39.5%
same,"viability, T/C",[11],99.8%
same,"viability, T/C",[12],148%
same,"viability, T/C",[13],81.7%
same,"viability, T/C",[14],78.3%
same,"viability, T/C",[15],55.5%
same,"viability, T/C",[16],41.1%
same,"viability, T/C",[17],107%
same,"viability, T/C",[18],121%
same,"viability, T/C",[19],86.5%
same,"viability, T/C",[20],70.8%
same,"viability, T/C",[21],65.7%
same,"viability, T/C",[22],40.3%
same,"viability, T/C",[23],87.1%
same,"viability, T/C",[24],126%
same,"viability, T/C",[25],70.7%
same,"viability, T/C",[26],68.7%
same,"viability, T/C",[27],49.7%
same,"viability, T/C",[28],46%
same,"viability, T/C",[29],79.9%
same,"viability, T/C",[30],96.3%
same,"viability, T/C",[31],97.7%
same,"viability, T/C",[32],65.6%
same,"viability, T/C",[33],65%
same,"viability, T/C",[34],45.2%
NC1c2ccccc2OC12CCN(c1cnc3c(N4CCCc5ncccc54)n[nH]c3n1)CC2 (stereo unspecified) + C=CC(=O)N1CCN(c2nc(OCC3CCCN3C)nc3c(F)c(-c4nc(N)cc(C)c4C(F)(F)F)c(Cl)cc23)C(C)C1,IC50,[1],> 10000 nM
same,IC50,[2],> 10000 nM
same,IC50,[3],> 10000 nM
same,IC50,[4],> 10000 nM
same,IC50,[5],> 10000 nM
same,IC50,[6],> 10000 nM
same,"viability, T/C",[7],72.7%
same,"viability, T/C",[8],94.8%
same,"viability, T/C","second compound 0.00316 µM, first compound 0.316 µM",66.4%
same,"viability, T/C","second compound 0.00316 µM, first compound 1 µM",59.4%
same,"viability, T/C","second compound 0.00316 µM, first compound 3.16 µM",75.9%
same,"viability, T/C","second compound 0.00316 µM, first compound 10 µM",106%
same,"viability, T/C",[9],83.5%
same,"viability, T/C",[10],121%
same,"viability, T/C","second compound 0.01 µM, first compound 0.316 µM",70.8%
same,"viability, T/C","second compound 0.01 µM, first compound 1 µM",59.3%
same,"viability, T/C","second compound 0.01 µM, first compound 3.16 µM",79.5%
same,"viability, T/C","second compound 0.01 µM, first compound 10 µM",102%
same,"viability, T/C",[15],122%
same,"viability, T/C",[16],135%
same,"viability, T/C","second compound 0.0316 µM, first compound 0.316 µM",61.5%
same,"viability, T/C","second compound 0.0316 µM, first compound 1 µM",70.8%
same,"viability, T/C","second compound 0.0316 µM, first compound 3.16 µM",85%
same,"viability, T/C","second compound 0.0316 µM, first compound 10 µM",92.4%
same,"viability, T/C",[21],136%
same,"viability, T/C",[22],131%
same,"viability, T/C","second compound 0.1 µM, first compound 0.316 µM",88.6%
same,"viability, T/C","second compound 0.1 µM, first compound 1 µM",56.3%
same,"viability, T/C","second compound 0.1 µM, first compound 3.16 µM",55%
same,"viability, T/C","second compound 0.1 µM, first compound 10 µM",93.7%
same,"viability, T/C",[27],108%
same,"viability, T/C",[28],134%
same,"viability, T/C","second compound 0.316 µM, first compound 0.316 µM",59.7%
same,"viability, T/C","second compound 0.316 µM, first compound 1 µM",64.7%
same,"viability, T/C","second compound 0.316 µM, first compound 3.16 µM",58.6%
same,"viability, T/C","second compound 0.316 µM, first compound 10 µM",104%
same,"viability, T/C",[33],99.5%
same,"viability, T/C",[34],109%
same,"viability, T/C","second compound 1 µM, first compound 0.316 µM",69.3%
same,"viability, T/C","second compound 1 µM, first compound 1 µM",61.8%
same,"viability, T/C","second compound 1 µM, first compound 3.16 µM",71.4%
same,"viability, T/C","second compound 1 µM, first compound 10 µM",106%
CC1(O)CCCC1n1c(=O)c(C(F)F)cc2cnc(NC3CCN(S(C)(=O)=O)CC3)nc21 (stereo unspecified),"viability, T/C",compound 0.0316 µM,86.8% [middle of 4 runs]
same,"viability, T/C",compound 0.1 µM,71.2% [middle of 4 runs]
same,"viability, T/C",compound 1 µM,71.2% [middle of 4 runs]
same,"viability, T/C",compound 10 µM,5.9% [middle of 4 runs]
same,IC50,curve of compound,4.5 µM [middle of 4 runs]
CC(C)n1nc(-c2ccc3oc(N)nc3c2)c2c(N)ncnc21 + C#Cc1c(F)ccc2cc(O)cc(-c3ncc4c(N5CC6CCC(C5)N6)nc(OCC56CCCN5CC(F)C6)nc4c3F)c12,IC50,[3],> 100 nM
same,IC50,[4],> 100 nM
same,IC50,[5],> 100 nM
same,IC50,[6],14.4 nM
same,IC50,"curve of first compound, second compound 3.16 µM",5.06 nM
same,IC50,"curve of first compound, second compound 10 µM",4.63 nM
same,"viability, T/C",[11],108%
same,"viability, T/C",[12],156%
same,"viability, T/C",[13],87.2%
same,"viability, T/C",[14],68.4%
same,"viability, T/C",[15],63.7%
same,"viability, T/C",[16],49.2%
same,"viability, T/C",[17],123%
same,"viability, T/C",[18],135%
same,"viability, T/C",[19],73.8%
same,"viability, T/C",[20],72.5%
same,"viability, T/C",[21],59.7%
same,"viability, T/C",[22],51%
same,"viability, T/C",[23],123%
same,"viability, T/C",[24],149%
same,"viability, T/C",[25],83.5%
same,"viability, T/C",[26],59.8%
same,"viability, T/C",[27],50.6%
same,"viability, T/C",[28],42.8%
same,"viability, T/C",[29],126%
same,"viability, T/C",[30],115%
same,"viability, T/C",[31],68.3%
same,"viability, T/C",[32],62.4%
same,"viability, T/C",[33],41.7%
same,"viability, T/C",[34],40%
same,"viability, T/C","second compound 3.16 µM, first compound 0.000316 µM",111%
same,"viability, T/C","second compound 3.16 µM, first compound 0.001 µM",107%
same,"viability, T/C","second compound 3.16 µM, first compound 0.00316 µM",56.5%
same,"viability, T/C","second compound 3.16 µM, first compound 0.01 µM",47.7%
same,"viability, T/C","second compound 3.16 µM, first compound 0.0316 µM",32.9%
same,"viability, T/C","second compound 3.16 µM, first compound 0.1 µM",30.6%
same,"viability, T/C","second compound 10 µM, first compound 0.000316 µM",96.9%
same,"viability, T/C","second compound 10 µM, first compound 0.001 µM",80.5%
same,"viability, T/C","second compound 10 µM, first compound 0.00316 µM",56.4%
same,"viability, T/C","second compound 10 µM, first compound 0.01 µM",36%
same,"viability, T/C","second compound 10 µM, first compound 0.0316 µM",25.6%
same,"viability, T/C","second compound 10 µM, first compound 0.1 µM",18.4%
